According to patent publication US20050043374A1, “Aryl substituted oxazolidinones with antibacterial activity” (priority 2001, published 2005):
Values after ≈ are worked out from the molar mass of the structure shown.

Tests used:
Assay type in all cases: cell-based
[1] = tested on: Staphylococcus aureus MRQR (methicillin resistant and quinolone resistant); test: MIC, agar dilution, staphylococci; conditions: inoculum 10^4 CFU/spot, 37° C., 24 hours
Method: (§1) The following results were obtained on a standard in-vitro test system. The activity is described in terms of the minimum inhibitory concentration (MIC) determined by the agar-dilution technique with an inoculum size of 10^4 CFU/spot. Typically, compounds are active in the range 0.01 to 256 μg/ml.
(§2) Staphylococci were tested on agar, using an inoculum of 10^4 CFU/spot and an incubation temperature of 37° C. for 24 hours—standard test conditions for the expression of methicillin resistance.

[2] = tested on: Staphylococcus aureus MSQS (methicillin sensitive and quinolone sensitive); test: MIC, agar dilution, staphylococci; conditions: inoculum 10^4 CFU/spot, 37° C., 24 hours
Method: as §1, §2

Moraxella catarrhalis = test: MIC, Mueller-Hinton broth with hemin and NAD, fastidious Gram negative organisms; conditions: aerobic, 24 hours, 37° C., 5×10^4 CFU/well
Method: as §1
(§3) Streptococci and enterococci were tested on agar supplemented with 5% defibrinated horse blood, an inoculum of 10^4 CFU/spot and an incubation temperature of 37° C. in an atmosphere of 5% carbon dioxide for 48 hours—blood is required for the growth of some of the test organisms. Fastidious Gram negative organisms were tested in Mueller-Hinton broth, supplemented with hemin and NAD, grown aerobically for 24 hours at 37° C., and with an innoculum of 5×10^4 CFU/well.

Haemophilus influenzae = test: as above; conditions: aerobic, 24 hours, 37° C., 5×10^4 CFU/well
Method: as §1, §3

Streptococcus pyogenes = test: MIC, agar with 5% defibrinated horse blood, streptococci; conditions: 10^4 CFU/spot, 37° C., 5% carbon dioxide, 48 hours
Method: as §1, §3

Streptococcus pneumoniae = test: as above; conditions: 10^4 CFU/spot, 37° C., 5% carbon dioxide, 48 hours
Method: as §1, §3

N#Cc1nnc(-c2ccc(N3C[C@H](Cn4ccnn4)OC3=O)cc2F)s1 [Example 1, (5R)-3-(3-Fluoro-4-(5-cyano-1,3,4-thiadiazol-2-yl)phenyl)-5-(1H-1,2,3-triazol-1-ylmethyl)-1,3-oxazolidin-2-one]
MIC [1]: 0.25 µg/mL (≈ 0.673 µM) | MIC [2]: 0.125 µg/mL (≈ 0.337 µM) | MIC (Moraxella catarrhalis): 0.5 µg/mL (≈ 1.35 µM) | MIC (Haemophilus influenzae): 2 µg/mL (≈ 5.39 µM) | MIC (Streptococcus pyogenes): 0.125 µg/mL (≈ 0.337 µM) | MIC (Streptococcus pneumoniae): 0.125 µg/mL (≈ 0.337 µM)
